According to patent US9938335B2, “Glucagon and GLP-1 co-agonist compounds” (Eli Lilly and Company, priority 2015, dated 2018):
≈ marks a conversion by molar mass, not a printed value. Read-outs that look alike come from different tables or passages of the source. Marks after values point to notes of the source that are not given here. Starred links: 1 amine or outer side, 2 acyl side, 3 side chain; linkers in the order of their positions; H or OH if unused. Non-standard residues stand in square brackets, D forms with d. Residues, ends and D or L forms follow the SMILES beside them. Groups on a side chain read outwards from the residue. *: point of attachment. C18 diacid = O=C(O)CCCCCCCCCCCCCCCCC(=O)*; γGlu = O=C(O)[C@H](CCC(=O)[*:2])N[*:1]; AEEA = NCCOCCOCC(=O)O; Aib = CC(C)(N)C(=O)O

Assays:
[1] = test system: DIO mice (C57BL/6); test: Acute treatment in DIO mice (PCSK9, FGF-21, cholesterol); format: in vivo, mouse; settings: 30 nmol/kg sc, 16 hours post dose
Description: In order to investigate metabolic pathways involved with the treatment of compounds of the present invention independent of weight loss, compounds are tested in DIO mice (C57BL/6) acutely. The mice used are three to four months old on a high fat diet for at least 4 weeks. Animals are individually housed in a temperature-controlled (24° C.) facility with a 12 hour light/dark cycle (lights on 6:00), and free access to food and water. Vehicle or testing compounds were administered to mice by subcutaneous injection at 16:00 the day before the study day. Animals were sacrificed 16 hours later to collect blood via cardia puncture. Statistics are analyzed using ANOVA with Dunnett's comparison for JMP-6. Significance is denoted at p≤0.05 vs vehicle.
Food intake was decreased to a similar level in all treatment groups, which may indicate that changes in cholesterol, PCSK9 and FGF-21 are food-intake independent.

[2] = test system: DIO mice (C57BL/6); test: Chronic treatment in DIO mice (body weight, fat, food intake); format: in vivo, mouse
How it was run: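 C57BL/6 DIO mice aged 5–6 months, individually housed and randomized (N=7/group) on body weight and NMR fat mass, received SC injections on Days 1, 4, 7, 10 and 13. Body weight and food intake were measured before each injection, with fat mass re-measured by NMR at study end. Percent body-weight change was tested by ANOVA/Dunnett vs vehicle (p≤0.05).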

[3] = Solubility (RP-HPLC and HPLC-SEC, 1 week at 4° C.); format: physicochemical
Description: Solubility of compounds of the present invention is measured in an Agilent 1100 HPLC, an Agilent 1200 HPLC and a Nanodrop 2000. The following HPLC columns are used:
(a) RP-HPLC: Waters Symmetry Shield C18, 3.6 um, 4.6×100 mm
(b) HPLC-SEC: Tosoh Biosciences, TSK2000SWXL […]
All peptide concentrations are made at 10 mg/mL in the following:
(a) 10 mM Tris pH 8.0+3 mg/mL m-cresol
(b) 10 mM Tris pH 8.0+3 mg/mL m-cresol+150 mM NaCl
(c) 10 mM Tris pH 8.0+3 mg/mL m-cresol+0.02% Tween-20
5 mL of 10 mg/mL peptide dissolved in 10 mM Tris at pH 8.0 is concentrated to approximately 20 mg/mL using Amicon-ultra 3 kDa MWCO devices. The solution is filtered using Millivex 0.22 μM filters (PVDF membrane) and the final concentration is measured by the NanoDrop spectrometer. This stock solution is used to formulate to the final conditions stated above using 3× m-cresol, 10× NaCl, and 100× Tween-20 stock solutions. A 10 mg/mL PBS solution is also prepared by dissolving directly at 5 mg/mL and concentrating using Amicon-ultra 3 kDa MWCO devices.
Each solution is placed in a refrigerator at 4° C. for 1 week, with analysis by RP-HPLC to assess concentration and HPLC-SEC to assess HMW species formation. Analyses completed at T-0 week and T-1 week.
The solubility of Compounds 1-4 was measured essentially as described in this assay.

[4] = target: T1, hGLP-1-R (Homo sapiens, UniProt P43220); test: hGLP-1R Binding Assay (SPA radioligand competition, 293HEK membranes); set-up: expressed in transfected cells; host or cells: 293HEK, stably transfected with plasmid phD, Hygromycin-selected; crude plasma membranes; settings: read-out: Ki, nM ± SEM at the hGLP-1-R
[5] = target: T1, hGLP-1-R; test: Functional hGLP-1-R assay (cAMP HTRF, HEK-293 clonal cell line); format: cell-based; set-up: expressed in transfected cells; host or cells: HEK-293 clonal cell line over-expressing the receptor
Description: After a 60 minute incubation at room temperature, the resulting increase in intracellular cAMP (adenosine 3′,5′-cyclic monophosphate) is quantitatively determined using the CisBio cAMP Dynamic 2 HTRF Assay Kit (62AM4PEJ). cAMP levels within the cell are detected by adding the cAMP-d2 conjugate in cell lysis buffer (20 μl) followed by the antibody anti-cAMP-Eu^3+-Cryptate, also in cell lysis buffer (20 μl).
A relative EC50 value and percent top (Emax) are derived by non-linear regression analysis using the percent maximal response vs. the concentration of peptide added, fitted to a four-parameter logistic equation (Genedata Screener®).
Means for EC50 are expressed as Geometric means±standard error of the mean (SEM) with the number of replicates (n) indicated in parenthesis. Means for Emax are expressed as the arithmetic mean±standard error. ND signifies that agonist activity was not detected.

[6] = Viscosity (Rheosense mVroc Viscometer); format: physicochemical; settings: approximately 10 mg/mL peptide in 10 mM Tris + 3 mg/mL m-cresol at pH 8.0; 25° C.; shear rate 1934 s^−1
Description: Viscosity of compounds of the present invention is measured in a Rheosense mVroc Viscometer with the following settings:
(a) Syringe size: 500 μL syringe
(b) Flow Rate: 100 μL/min flow rate
(c) Average Temperature: 25° C.
(d) Shear Rate: 1934 s^−1
Dry powder (compound) is weighed out, dissolved in water as a cloudy precipitate, and titrated to approximately pH 8.0 with 1N NaOH. The solution is sonicated and swirled by hand until peptide is in solution. Samples are sterile filtered (0.22 μm PVDF filters). Samples are then analyzed by UV-Vis to assess stock solution concentrations. Solutions are diluted to final concentration using 3× m-cresol in 10 mM Tris pH 8.0 buffer to final concentrations of approximately 10 mg/mL peptide by weight in 10 mM Tris+3 mg/mL m-cresol at pH 8.0. Samples were filtered through 0.22 μm filters immediately prior to viscosity analysis. 25 μL of sample are removed to verify concentration by RP-HPLC before and after analysis.
Water and buffer control samples are measured before and after each sample is analyzed. The instrument is washed with buffer (3×) in between analysis of each sample. The samples are loaded into individual syringes and analyzed. The first measurement is not included in the final calculation to allow for equilibration with the system. Samples are then analyzed in triplicate (n=3).
The viscosity of Compounds 1-4 was measured essentially as described in this assay.

[7] = target: hGcg-R (Homo sapiens, UniProt P47871); test: hGcg-R Binding Assay (SPA radioligand competition, 293HEK membranes); settings: read-out: Ki, nM ± SEM at the hGcg-R
[8] = 15 nmol/kg sc every three days for 15 days
[9] = 30 nmol/kg sc every three days for 15 days

T1 sequence (P43220 24-463): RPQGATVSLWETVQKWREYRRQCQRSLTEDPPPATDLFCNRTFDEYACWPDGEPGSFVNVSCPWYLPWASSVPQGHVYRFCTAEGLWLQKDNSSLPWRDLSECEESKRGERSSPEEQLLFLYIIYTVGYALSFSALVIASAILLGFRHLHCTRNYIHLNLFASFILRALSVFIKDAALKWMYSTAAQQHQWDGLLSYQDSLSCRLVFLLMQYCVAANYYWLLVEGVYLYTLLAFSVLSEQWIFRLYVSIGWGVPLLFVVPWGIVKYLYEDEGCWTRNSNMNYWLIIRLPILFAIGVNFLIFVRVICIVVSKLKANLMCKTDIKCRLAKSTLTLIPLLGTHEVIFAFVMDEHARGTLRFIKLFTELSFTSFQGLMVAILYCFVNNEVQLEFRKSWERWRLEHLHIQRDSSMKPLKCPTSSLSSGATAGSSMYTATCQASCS
hGcg-R, sequence (P47871 26-477): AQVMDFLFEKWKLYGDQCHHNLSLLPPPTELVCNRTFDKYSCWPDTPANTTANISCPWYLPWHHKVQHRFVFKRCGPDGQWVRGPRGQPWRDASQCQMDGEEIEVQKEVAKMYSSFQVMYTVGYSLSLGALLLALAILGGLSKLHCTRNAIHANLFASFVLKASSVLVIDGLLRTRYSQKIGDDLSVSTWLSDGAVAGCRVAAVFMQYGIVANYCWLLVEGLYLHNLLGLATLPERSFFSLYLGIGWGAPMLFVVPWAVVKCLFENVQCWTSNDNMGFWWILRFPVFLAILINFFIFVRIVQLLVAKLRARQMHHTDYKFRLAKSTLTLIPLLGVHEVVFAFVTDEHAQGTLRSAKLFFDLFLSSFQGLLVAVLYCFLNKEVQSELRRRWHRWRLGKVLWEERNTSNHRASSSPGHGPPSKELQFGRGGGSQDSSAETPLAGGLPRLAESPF

- solubility at 1 week ([3]; 10 mM Tris pH 8.0 + 3 mg/mL m-cresol + 0.02% Tween-20, Tris pH 8 + 3 mg/mL m-cresol + 0.02% Tween-20): 10000 µg/mL
- solubility at 1 week ([3]; 10 mM Tris pH 8.0 + 3 mg/mL m-cresol + 150 mM NaCl, Tris pH 8 + 3 mg/mL m-cresol + 150 mm NaCl): 10000 µg/mL
- solubility at 1 week ([3]; 10 mM Tris pH 8.0 + 3 mg/mL m-cresol, Tris pH 8 + 3 mg/mL m-cresol): 10000 µg/mL
- solubility at 1 week ([3]; PBS pH 7.4, pH 7.4, read-out: solubility in PBS, pH 7.4): 10000 µg/mL (≈ 2160 µM)
- Ki [4]: 8.68 ± 1.6 nM
- Emax ([5]; HEK293): 105 ± 5%
- EC50 ([5]; cAMP, 60 minute incubation, 0.25% FBS, 0.05% BSA, geometric mean, read-out: Human GLP-1-R EC50, nM ± SEM (n)): 34.3 ± 9.4 nM
- 500 μL syringe Viscosity [6]: 1.03 cP or mPa-s
- Ki [7]: 37.3 ± 4.2 nM
SMILES: CC(C)C[C@H](NC(=O)[C@H](CC(C)C)NC(=O)[C@H](Cc1c[nH]c2ccccc12)NC(=O)[C@H](CCC(=O)O)NC(=O)[C@@H](NC(=O)[C@H](Cc1ccccc1)NC(=O)[C@H](CCC(=O)O)NC(=O)[C@H](CCCCNC(=O)COCCOCCNC(=O)COCCOCCNC(=O)CC[C@H](NC(=O)CC[C@H](NC(=O)CCCCCCCCCCCCCCCCC(=O)O)C(=O)O)C(=O)O)NC(=O)[C@H](C)NC(=O)[C@H](CCCCN)NC(=O)[C@H](CCCCN)NC(=O)[C@H](CCC(=O)O)NC(=O)[C@H](CC(=O)O)NC(=O)[C@H](CC(C)C)NC(=O)[C@H](Cc1ccc(O)cc1)NC(=O)[C@H](CCCCN)NC(=O)[C@H](CO)NC(=O)[C@H](Cc1ccc(O)cc1)NC(=O)[C@H](CC(=O)O)NC(=O)[C@H](CO)NC(=O)[C@@H](NC(=O)[C@H](Cc1ccccc1)NC(=O)[C@@H](NC(=O)CNC(=O)[C@H](CCC(N)=O)NC(=O)C(C)(C)NC(=O)[C@@H](N)Cc1c[nH]cn1)[C@@H](C)O)[C@@H](C)O)C(C)C)C(=O)N[C@@H](CO)C(=O)NCC(=O)NCC(=O)N1CCC[C@H]1C(=O)N[C@@H](CO)C(=O)N[C@@H](CO)C(=O)NCC(N)=O [Compound 3] (H-H[Aib]QGTFTSDYSKYLDEKKAK([AEEA-AEEA-γGlu-γGlu-C18 diacid])EFVEWLLSGGPSSG-NH2; N-terminus assumed)
- Cholesterol (% of vehicle) [1]: 55.6* % of vehicle
- FGF-21 (% of vehicle) [1]: 1124* % of vehicle
- PCSK9 (% of vehicle) [1]: 15.6* % of vehicle
- Body Fat (% change vs. vehicle from Day 1) [2, 8]: −32* %
- Body Weight (% change vs. vehicle from Day 1) [2, 8]: −17* %
- Body Fat (% change vs. vehicle from Day 1) [2, 9]: −67* %
- Body Weight (% change vs. vehicle from Day 1) [2, 9]: −37* %
- HMW species formation by SEC-HPLC ([3]; 1 week at 4° C.): No observed HMW species formation by SEC-HPLC;
- visible precipitation or phase separation ([3]; after 1 week storage at 4° C.): No visible precipitation or phase separation observed after 1 week
